Legend:
[1] = tested on: Klebsiella pneumoniae ATCC BAA-2470 (NDM-1); experiment: MIC shift, liquid microdilution, test compound fixed at 8 μg/mL; format: cell-based; settings: ATCCBAA2470
Method: (§1) Preparation of compound mother plate: On the day of the experiment, the compound to be tested (the final concentration was 0.3125 to 20 μg/mL) and meropenem (the final concentration ranged from 1 to 64 μg/mL) were dissolved in a corresponding solvent (sterile ddH2O or DMSO) to form 100× mother liquors with the highest test concentration, and the compound to be tested and meropenem were then subjected to 2-fold series gradient dilution in a V-bottom 96-well plate to obtain 100× working solutions with the final concentration.
(§2) Preparation of inoculation solution: Fresh bacterial clones were picked from an overnight Mueller Hinton II Agar medium (MHA, Cat. No. 211438, BD BBLTM) plate, suspended in sterilized physiological saline, and adjusted to a concentration of 1×10^8 CFU/mL, and the suspension was further diluted to 5-10^5 CFU/mL with Cation-Adjusted Mueller Hinton II Broth (MHB, Catalog #212332, BD BBLTM).
(§3) Detection of minimum inhibitory concentration (MIC): 1 μL of the compound to be tested and the meropenem working solution were transferred to the corresponding wells to be tested in a round-bottomed 96-well plate (Catalog #3788, Corning), and 98 μL of the inoculation solution was added to the round-bottomed 96-well plate containing drugs, which was an MIC test plate; and after the plate was inverted and cultured at 37° C. for 20-24 h, the MIC value was read, and the minimum inhibitory concentration for inhibiting bacterial growth was defined as MIC.
(§4) The test compound was tested for minimum inhibitory concentration against 5 strains of Klebsiella pneumoniae ATCC BAA-1705 (KPC-2), ATCC BAA-2470 (NDM-1), ARLG-1196 (CTM-1 group, SHA NDM, TEM), NCTC 13440 (VIM-1), and NCTC 13439 (VIM), and one strain of Escherichia coli ARLG-2829 (NDM-5, OXA-1). According to the requirements of the Institute of Clinical And Laboratory Standard (CLSI), the minimum inhibitory concentration (MIC) of each drug combination was determined by liquid microdilution method under the premise of fixing the concentration of the compound to be tested at 8 μg/mL. The test method was the same as above, and the concentration of meropenem ranged from 0.125 to 8 μg/mL.

[2] = tested on: Escherichia coli ARLG-2829 (NDM-5, OXA-1); experiment: as above; format: cell-based
Method: as §1, §2, §3, §4

[3] = tested on: Klebsiella pneumoniae NCTC 13439 (VIM); experiment: as above; format: cell-based; settings: NCTC13439, meropenem alone, K. pneumoniae NCTC 13439
Method: as §1, §2, §3, §4

[4] = tested on: Klebsiella pneumoniae ARLG-1196 (CTM-1 group, SHA NDM, TEM); experiment: as above; format: cell-based; settings: meropenem alone, K. pneumoniae ARLG-1196
Method: as §1, §2, §3, §4

[5] = tested on: Klebsiella pneumoniae NCTC 13440 (VIM-1); experiment: as above; format: cell-based; settings: NCTC13440, meropenem alone, K. pneumoniae NCTC 13440
Method: as §1, §2, §3, §4

[6] = tested on: Klebsiella pneumoniae ATCC BAA-1705 (KPC-2); experiment: as above; format: cell-based; settings: ATCCBAA1705, meropenem alone, K. pneumoniae ATCC BAA-1705
Method: as §1, §2, §3, §4

[7] = tested on: Klebsiella pneumoniae ATCC BAA-1705; experiment: Mouse thigh muscle infection model, bacterial load; format: in vivo, CD-1 female mice; settings: endpoint 12 h
Method: 36 CD-1 female mice were divided into 12 cages with 3 […] in each cage. The day of infection was denoted as day 0.
Immunosuppressant cyclophosphamide at 150 mg/kg was injected intraperitoneally on day −4 and immunosuppressant cyclophosphamide at 100 mg/kg was injected intraperitoneally on day −1 to induce immunodeficient mice.
On day −1, the strain Klebsiella pneumoniae ATCC BAA-1705 was resuscitated on an MHA plate. Resuscitated colonies were picked and dissolved in sterile physiological saline to prepare a bacterial solution with a concentration of 5.6E+07 CFU/mL for thigh muscle infection in mice. The initial time of infection was denoted as 0 h, and 100 μL of the bacterial solution was injected into each mouse at the thigh muscle at 0 h, that is, the inoculation amount was 5.6E+06 CFU/mouse. 2 h after infection, dosing was performed according to the experimental scheme. The specific experimental scheme was as follows (see Table 4): • (1) 2 h after infection: for the 1st cage of mice, at the endpoint, thigh muscle tissue was taken and placed in 10 mL of sterile physiological saline, the tissue was homogenized by a homogenizer, and the homogenate was diluted in a gradient and spotted in a plate, with two replicates for each mouse. • (2) 2 h after infection: the 2nd to 12th cages were respectively treated at 10 mL/kg by volume according to the body weight of the mice, the 2nd cage of mice were given a vehicle by intravenous injection every 2 h, and the endpoint was 12 h; the 3rd cage of mice were given 100 mg/kg of meropenem by intravenous injection every 2 h, and the endpoint was 12 h; the 4th cage of mice were given 100 mg/kg of meropenem and 20 mg/kg of QPX7728 by intravenous injection every 2 h, and the endpoint was 12 h; the 5th cage of mice were given 100 mg/kg of meropenem and 100 mg/kg of compound 15 by intravenous injection every 2 h, and the endpoint was 12 h; the 6th cage of mice were given 100 mg/kg of meropenem and 20 mg/kg of compound 15 by intravenous injection every 2 h, and the endpoint was 12 h; the 7th cage of mice were given 100 mg/kg of meropenem and 4 mg/kg of compound 15 by intravenous injection every 2 h, and the endpoint was 12 h; the 8th cage of mice were given 100 mg/kg of cefepime by intravenous injection every 2 h, and the endpoint was 12 h; the 9th cage of mice were given 100 mg/kg of cefepime and 20 mg/kg of QPX7728 by intravenous injection every 2 h, and the endpoint was 12 h; the 10th cage of mice were given 100 mg/kg of cefepime and 100 mg/kg of compound 15 by intravenous injection every 2 h, and the endpoint was 12 h; the 11th cage of mice were given 100 mg/kg of cefepime and 20 mg/kg of compound 15 by intravenous injection every 2 h, and the endpoint was 12 h; and the 12th cage of mice were given 100 mg/kg of cefepime and 4 mg/kg of compound 15 by intravenous injection every 2 h, and the endpoint was 12 h. At the endpoint of 12 h, thigh muscle tissue was taken and placed in 10 mL of sterile physiological saline, the tissue was homogenized by a homogenizer, and the homogenate was diluted in a gradient and spotted in a plate, with two replicates for each mouse. The bacterial load in the thigh muscle tissue of the mice was counted, and the experiment was summarized as follows (see Table 5): […]

Row | Compound | MIC [1] | MIC [2] | MIC [3] | MIC [4] | MIC [5] | MIC [6] | Average CFU in mice (thigh muscle tissue) ([7]; antibiotic alone 100 mg/kg i.v. q2h) | Average CFU in mice (thigh muscle tissue) ([7]; cefepime 100 mg/kg + inhibitor 4 mg/kg i.v. q2h) | Average CFU in mice (thigh muscle tissue) ([7]; cefepime 100 mg/kg + inhibitor 20 mg/kg i.v. q2h) | Average CFU in mice (thigh muscle tissue) ([7]; cefepime 100 mg/kg + inhibitor 100 mg/kg i.v. q2h) | Average CFU in mice (thigh muscle tissue) ([7]; meropenem 100 mg/kg + inhibitor 4 mg/kg i.v. q2h) | Average CFU in mice (thigh muscle tissue) ([7]; meropenem 100 mg/kg + inhibitor 20 mg/kg i.v. q2h) | Average CFU in mice (thigh muscle tissue) ([7]; meropenem 100 mg/kg + inhibitor 100 mg/kg i.v. q2h)
1 | C[C@@H](O)[C@H]1C(=O)N2C(C(=O)O)=C(S[C@@H]3CN[C@H](C(=O)N(C)C)C3)[C@H](C)[C@H]12 [Meropenem, meropenem, reference compound] | 128 mg/L | 128 mg/L | 4 mg/L | 64 mg/L | 16 mg/L | 32 mg/L | 4.83E+08 CFU/mouse | – | – | – | – | – | –
2 | CCOc1ccc2c(c1C(=O)O)O[B-](O)(O)CO2 [Compound 15] | – | – | – | – | – | – | – | 5.68E+06 CFU/mouse | 2.06E+06 CFU/mouse | 1.24E+06 CFU/mouse | 1.65E+07 CFU/mouse | 4.08E+06 CFU/mouse | 2.02E+06 CFU/mouse

Reference: patent US12590108B2, “Boracic acid compound” (Phaeno Therapeutics Co., Ltd, priority 2020, dated 2026)
